Key:
Test in all cases: relative viability (nuclei count vs DMSO), 5 days (fraction); higher = more cells survive
Bemcentinib + Pictilisib = compound: Nc1nc(Nc2ccc3c(c2)CC[C@@H](N2CCCC2)CC3)nn1-c1cc2c(nn1)-c1ccccc1CCC2 [Bemcentinib] + CS(=O)(=O)N1CCN(Cc2cc3nc(-c4cccc5[nH]ncc45)nc(N4CCOCC4)c3s2)CC1 [Pictilisib] (partner 1 µM)
Outline: (§1)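 Relative viability divides the nuclei count in treated wells by that in vehicle wells. Lung cancer cell lines were seeded in 1536-well plates, dosed by pin tool the next day, and fixed and stained after 5 days in one step with final 0.05% Triton X-100, 1% formaldehyde and 1 ug/ml Hoechst. Dosing was a single drug or a fixed anchor-drug dose plus five library-drug doses (not always all listed) in √10 steps, and values are medians of duplicate plates imaged at 4×.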

[1] = compound: CC1=CC=C(C=C1)C(=O)CN2C3=C(CCCC3)SC2=N [Pifithrin_alpha] + Nc1ncn([C@H]2C[C@H](O)[C@@H](CO)O2)c(=O)n1 [Decitabine] (partner 2 µM)
Outline: as §1

Axitinib + Pictilisib = compound: CNC(=O)c1ccccc1Sc1ccc2c(/C=C/c3ccccn3)n[nH]c2c1 [Axitinib] + CS(=O)(=O)N1CCN(Cc2cc3nc(-c4cccc5[nH]ncc45)nc(N4CCOCC4)c3s2)CC1 [Pictilisib] (partner 1 µM)
Outline: as §1

[2] = compound: CC1=CC=C(C=C1)C(=O)CN2C3=C(CCCC3)SC2=N [Pifithrin_alpha] + CS(=O)(=O)N1CCN(Cc2cc3nc(-c4cccc5[nH]ncc45)nc(N4CCOCC4)c3s2)CC1 [Pictilisib] (partner 1 µM)
Outline: as §1

Cell Line | relative viability (Bemcentinib + Pictilisib; first compound 0.04 µM) | relative viability (Bemcentinib + Pictilisib; first compound 0.1265 µM) | relative viability (Bemcentinib + Pictilisib; first compound 0.4 µM) | relative viability (Bemcentinib + Pictilisib; first compound 1.265 µM) | relative viability (Bemcentinib + Pictilisib; first compound 4 µM) | relative viability ([1]; first compound 1 µM) | relative viability ([1]; first compound 3.162 µM) | relative viability ([1]; first compound 10 µM) | relative viability ([1]; first compound 31.62 µM) | relative viability ([1]; first compound 100 µM) | relative viability (Axitinib + Pictilisib; first compound 0.005 µM) | relative viability (Axitinib + Pictilisib; first compound 0.01581 µM) | relative viability (Axitinib + Pictilisib; first compound 0.05 µM) | relative viability (Axitinib + Pictilisib; first compound 0.1581 µM) | relative viability (Axitinib + Pictilisib; first compound 0.5 µM) | relative viability ([2]; first compound 1 µM) | relative viability ([2]; first compound 3.162 µM) | relative viability ([2]; first compound 10 µM) | relative viability ([2]; first compound 31.62 µM) | relative viability ([2]; first compound 100 µM)
NCI-H1793 | 0.414 | 0.38 | 0.454 | 0.395 | 0.361 | 0.442 | 0.464 | 0.489 | 0.323 | 0.454 | 0.258 | 0.253 | 0.326 | 0.307 | 0.256 | 0.251 | 0.388 | 0.436 | 0.341 | 0.323
HCC-78 | 0.144 | 0.211 | 0.202 | 0.197 | 0.202 | – | 0.623 | 0.673 | 0.623 | 0.56 | 0.207 | 0.257 | 0.238 | 0.229 | 0.218 | 0.134 | 0.218 | 0.174 | – | 0.196
NCI-H322M | 0.512 | 0.522 | 0.418 | 0.525 | 0.564 | 0.72 | 0.708 | 0.719 | 0.78 | 0.784 | 0.571 | 0.496 | 0.474 | 0.472 | 0.505 | 0.54 | 0.45 | 0.503 | 0.44 | 0.428
COR-L23 | 0.843 | 0.978 | 1.03 | 0.953 | 0.927 | 0.412 | 0.399 | 0.404 | – | 0.328 | 0.838 | 0.779 | 0.832 | 0.731 | 0.944 | 0.736 | 0.75 | 0.731 | – | 0.695
201T | 0.689 | 0.694 | 0.763 | 0.712 | 0.748 | 0.866 | 0.866 | 0.815 | 0.701 | 0.74 | 0.671 | 0.69 | 0.662 | 0.675 | 0.675 | 0.603 | 0.525 | 0.52 | 0.53 | 0.551
NCI-H2347 | 0.511 | 0.488 | 0.708 | 0.82 | 0.649 | 0.576 | 0.685 | 0.603 | 0.65 | 0.698 | 0.605 | 0.584 | 0.876 | 0.855 | 0.783 | 0.754 | 0.145 | 0.753 | 0.408 | 0.6
LCLC-97TM1 | 0.16 | 0.183 | – | 0.237 | 0.249 | – | 0.272 | 0.235 | – | 0.121 | 0.145 | 0.229 | 0.206 | 0.247 | 0.172 | – | 0.179 | 0.224 | – | 0.229
NCI-H2126 | 0.475 | 0.483 | 0.531 | 0.485 | 0.485 | 0.518 | 0.594 | 0.576 | 0.49 | 0.548 | 0.457 | 0.475 | 0.504 | 0.522 | 0.499 | 0.341 | 0.482 | 0.405 | 0.427 | 0.376
NCI-H1944 | 0.356 | 0.342 | 0.371 | 0.357 | 0.343 | 0.406 | 0.461 | 0.39 | 0.337 | 0.343 | 0.356 | 0.336 | 0.357 | 0.351 | 0.357 | 0.314 | 0.341 | 0.307 | – | 0.308
HCC-15 | 0.747 | 0.767 | 0.822 | 0.738 | 0.781 | 0.657 | 0.738 | 0.573 | 0.531 | 0.456 | 0.696 | 0.828 | 0.761 | 0.736 | 0.737 | 0.691 | 0.754 | 0.673 | 0.458 | 0.715
NCI-H2405 | 0.392 | 0.513 | 0.415 | 0.517 | 0.509 | – | 0.678 | 0.708 | 0.592 | 0.668 | 0.422 | 0.534 | 0.658 | 0.465 | 0.383 | – | 0.39 | 0.427 | 0.403 | 0.292
COR-L 105 | 0.292 | 0.43 | 0.408 | 0.378 | 0.387 | 0.652 | 0.622 | 0.62 | 0.646 | 0.581 | 0.42 | 0.411 | 0.379 | 0.382 | 0.385 | 0.324 | 0.377 | 0.415 | 0.33 | 0.458
ABC-1 | 0.688 | 0.736 | 0.731 | 0.77 | 0.955 | – | 1.02 | 1.03 | 1 | 0.803 | 0.716 | 0.773 | 0.812 | 0.658 | 0.834 | 0.273 | 0.745 | 0.735 | 0.429 | 0.437
HCC-366 | 0.124 | 0.206 | 0.157 | 0.124 | 0.146 | 0.308 | 0.326 | 0.403 | – | 0.297 | 0.116 | 0.171 | 0.146 | 0.153 | 0.101 | 0.105 | 0.106 | 0.136 | 0.136 | 0.112
NCI-H2342 | – | – | – | – | – | 0.685 | 0.779 | 0.744 | 0.64 | 0.678 | – | – | – | – | – | – | – | – | – | –
NCI-H2085 | 0.44 | 0.468 | 0.418 | 0.459 | 0.451 | 0.523 | 0.419 | 0.473 | 0.473 | 0.503 | 0.457 | 0.467 | 0.441 | 0.507 | 0.373 | 0.487 | 0.498 | 0.444 | 0.43 | 0.404
BEN | 0.551 | 0.6 | 0.631 | 0.564 | 0.591 | 0.505 | 0.771 | 0.742 | 0.623 | 0.639 | 0.547 | 0.536 | 0.533 | 0.516 | 0.515 | 0.445 | 0.576 | 0.64 | 0.618 | 0.543
